Reference: ChEMBL document CHEMBL1137989, “Synthesis, electrochemistry, and bioactivity of the cyanobacterial calothrixins and related quinones” (J Med Chem, 2004)

These molecules were tested on HeLa (assay: Cytotoxicity against HeLa cell lines). Conditions: Homo sapiens.
Assay type: functional, cell-based
Work on `O=C1c2ccccc2C(=O)c2c1[nH]c1ccccc21` [BENZOCARBAZOLEDIONE] yielded an EC50 of 430 nM.
With `O=C1c2c[n+]([O-])c3ccccc3c2C(=O)c2[nH]c3ccccc3c21` [CALOTHRIXIN A] the EC50 was 120 nM.
`COCn1c2c(c3ccccc31)C(=O)c1cnc3ccccc3c1C2=O` gave an EC50 of 420 nM.
`COn1c2c(c3ccccc31)C(=O)c1ccccc1C2=O` showed an EC50 of 1600 nM.
In the case of `O=C1c2ccncc2C(=O)c2c1[nH]c1ccccc21`, the EC50 is reported as 150 nM.
`COC(=O)c1ccccc1C(=O)c1cn(OC)c2ccccc12` was tested, and the EC50 was greater than 50000 nM.
`COC(=O)c1ccccc1C(=O)c1c[nH]c2ccccc12` gave an EC50 greater than 50000 nM.
Molecule `O=C1c2[nH]c3ccccc3c2C(=O)c2cnc3ccccc3c21` [CALOTHRIXIN B] has an EC50 of 240 nM.
`CC1=CC(=O)c2ccccc2C1=O` [MENADIONE] was tested, and the EC50 was 3700 nM.
